Among the data in PubChem BioAssay AID1159558 (GlaxoSmithKline (GSK), 2015) are IC50 values, retold here.

Active and inactive are the calls of the source.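 How the source made its calls: active means IC50 against T. cruzi CYP51 below a set limit; inactive means the rest.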

For the assay, the target named is Sterol 14-alpha demethylase (Trypanosoma cruzi (strain CL Brener)) (UniProt Q7Z1V1). Description: TcCYP51 inhibitors, dose response, mechanism study for T. cruzi antiparasitic project, biochemical, recombinant enzyme (AID 1159558).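 Further: enzyme in bacterial membranes with Anopheles gambiae CYP reductase and cytochrome b5 partners.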 Conditions: recombinant T. cruzi CYP51, BOMCC fluorescence.
Sequence of Sterol 14-alpha demethylase (Trypanosoma cruzi (strain CL Brener)) (Q7Z1V1 whole entry, looked up): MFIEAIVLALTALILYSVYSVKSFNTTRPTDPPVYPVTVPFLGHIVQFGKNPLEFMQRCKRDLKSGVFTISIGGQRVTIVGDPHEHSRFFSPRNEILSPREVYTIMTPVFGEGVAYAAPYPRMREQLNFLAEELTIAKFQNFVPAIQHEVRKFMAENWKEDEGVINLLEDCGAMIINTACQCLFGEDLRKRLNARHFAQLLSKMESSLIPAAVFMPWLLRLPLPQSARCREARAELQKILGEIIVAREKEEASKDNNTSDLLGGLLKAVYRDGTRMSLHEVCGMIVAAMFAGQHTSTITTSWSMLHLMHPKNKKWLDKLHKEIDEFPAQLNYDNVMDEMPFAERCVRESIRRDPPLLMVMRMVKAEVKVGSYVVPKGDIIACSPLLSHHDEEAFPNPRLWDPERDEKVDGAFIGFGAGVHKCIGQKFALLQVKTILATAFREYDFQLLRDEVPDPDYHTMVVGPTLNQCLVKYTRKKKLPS
As to `Cc1nc(-c2ccncc2)ncc1C(C)NC(=O)c1ccc(Cl)s1` (configuration not stated), the IC50 is 0.79 µM.

Take `COc1cccc(C(=O)[C@H]2C[C@@H]2CN(Cc2ccccn2)Cc2ccccn2)c1`: the IC50 was 32 µM.

`O=C(CN(c1cccc(C(F)(F)F)c1)S(=O)(=O)c1ccc(Cl)cc1)NCc1ccc(F)c(F)c1`: the IC50 is 0.16 µM.

With `COc1ccc(-c2nc3ccncc3c(=O)n2CCOc2ccccc2)cc1`, the IC50 is 0.04 µM.

Turning to `NC(=O)c1cc(F)ccc1Nc1nc(NC2CCC(O)CC2)ncc1Cl` (configuration not stated), the IC50 was 32 µM.

For `O=C(c1ccc(Cl)cc1)c1ccc(OC(=O)N2CCOCC2)cc1`, the IC50 was 40 µM.

In the case of `O=C(Nc1ccc(C(F)(F)F)cc1)Nc1cccc([N+](=O)[O-])c1`, the IC50 is 6.3 µM.

With `COc1ccc(S(=O)(=O)Nc2ccccc2OC)cc1NC(=O)CCCc1c[nH]c2ccccc12`, the IC50 was > 100 µM (inactive).

Take `COc1ccc2ncc(F)c(NC(=O)C3(O)CCC(NCc4ccc5c(c4)OCCO5)CC3)c2n1` (configuration not stated): the IC50 was 63 µM.

For `CCOC(=O)c1cn[nH]c1S(=O)(=O)N1CCC1c1ccccc1` (configuration not stated), the IC50 was 50 µM.

With `CC(C)CC(=O)Nc1cc(C2CC2)nn1-c1nc2c(c(=O)[nH]1)CCCC2`, the IC50 was > 100 µM (inactive).

In the case of `CN(Cc1nc2c(C(=O)N3CCN(Cc4ccccc4)CC3)cccc2[nH]1)C1CCCc2cccnc21` (configuration not stated), the IC50 is 40 µM.

With `N#Cc1ccc(Br)cc1[N+](=O)[O-]`, the IC50 is 50 µM.

On to `O=S(=O)(c1cccc(CSc2nnc(-c3ccc4c(c3)OCO4)o2)c1)N1CCOCC1`, for which the concentration for half-maximal inhibition (IC50) is 13 µM.

`CCc1cc(C(=O)Nc2nccn2-c2ccccc2)cs1`: the IC50 is > 100 µM (inactive).

In the case of `Cc1nn(-c2ccccc2)nc1CNC(=O)CN(Cc1ccccn1)Cc1ccccn1`, the IC50 is 25 µM.

Turning to `O=c1ccc2ccc(F)c3c2n1C[C@H]3CN1CCC(NCc2cc3ccccc3o2)CC1`, the half-inhibitory concentration (IC50) was 32 µM.

As for `OC[C@@H](Nc1nccc(-c2c(-c3ccc(F)cc3)ncn2C2CCNCC2)n1)c1ccccc1`, the IC50 is 25 µM.

Consider `NC(=O)c1ncc(N[C@@H]2CCCNC2)nc1Nc1cccc(Cl)c1`, for which the IC50 is > 100 µM (inactive).

Regarding `O=[N+]([O-])c1ccc(C2=CC(c3ccccc3)=NCCN2)cc1`, the IC50 was 50 µM.

As to `O=C(Nc1nc2ccccc2[nH]1)c1c(O)c2cccc3c2n(c1=O)CC3`, the IC50 is > 100 µM (inactive).

As for `Cc1ccccc1CNC(=O)CN(Cc1ccccn1)Cc1ccccn1`, the IC50 was 100 µM.

On to `CNS(=O)(=O)c1ccccc1Nc1nc(Nc2cc(C)nn2C)ncc1Cl`, for which the IC50 is 25 µM.

For `CCc1cccc(-n2nc(OCC(=O)NC3CCCC3)c3cccnc32)c1`, the IC50 was > 100 µM (inactive).

Take `CC(C)Nc1nc(Cl)nc2ccccc12`: the IC50 is > 100 µM (inactive).

Consider `CNC(=O)C1Cc2ccccc2N1C(=O)Cc1ccccc1` (configuration not stated), for which the IC50 is > 100 µM (inactive).

For the molecule `Cc1cc(Nc2cc(C3CC3)[nH]n2)nc(N2CCC[C@H]2C(N)=O)n1`, the IC50 was > 100 µM (inactive).

With `C[C@@H](Oc1cc(-n2cnc3ccc(C(O)CO)cc32)sc1C(N)=O)c1ccccc1C(F)(F)F` (some centres not stated), the IC50 was 25 µM.

Consider `Cc1ccc(-c2csc(NC(=O)C=Cc3ccc(S(=O)(=O)N4CCOCC4)cc3)n2)o1`, for which the IC50 is 20 µM.

`Cc1nc2c(-c3nc(-c4ccc(N)cc4)n[nH]3)cccn2c1C`: the IC50 was > 100 µM (inactive).

With `COc1cc(Cl)c(C)cc1NC(=O)c1ccc([N+](=O)[O-])s1`, the IC50 is 16 µM.

As to `c1ccc(-c2nc(NC3CCCCC3)cc(C3CC3)n2)nc1`, the IC50 is > 100 µM (inactive).

In the case of `Cn1ccnc1CN1CCc2[nH]cnc2C1c1ccccc1OCc1ccccc1` (configuration not stated), the IC50 is 7.9 µM.

Consider `Oc1cccnc1-c1n[nH]c(Cc2ccccc2)n1`, for which the IC50 is > 100 µM (inactive).

On to `Oc1c(-c2n[nH]c(Cc3ccc(Cl)cc3)n2)ncc2cccnc12`, for which the IC50 was 32 µM.

On to `Cn1nc(C(=O)N2CCc3ccccc32)c2c1CCS(=O)(=O)C2`, for which the IC50 was > 100 µM (inactive).

On to `Cc1occc1C(=O)Nc1ccccc1C(=O)Nc1nccs1`, for which the IC50 was > 100 µM (inactive).

Take `Cc1cc(C)nc(N2CCC(N(Cc3cccnc3)C(=O)c3cccc(C#N)c3)CC2)n1`: the IC50 was 0.13 µM.

Regarding `COCc1cc(Nc2ccc(Cl)cc2)nc(-c2ccccn2)n1`, the IC50 is > 100 µM (inactive).

With `CCOC(=O)c1noc(N)c1-c1ccccc1`, the IC50 is > 100 µM (inactive).

For `CCN(CC)c1ccc(S(=O)(=O)N(CC)CC)c2nonc12`, the IC50 is 25 µM.

Turning to `COc1ccc(C)cc1-c1csc(NC(=O)C(C)n2ccnc2)n1` (configuration not stated), the IC50 is 0.04 µM.

Take `c1ccc(-c2nc(NC3CCCC3)c3ccccc3n2)nc1`: the IC50 was > 100 µM (inactive).

`CCC(=O)Nc1ccc(-c2nc3ccc(Cl)cc3[nH]2)cc1`: the IC50 was > 100 µM (inactive).

Turning to `Cc1cc(NC(=O)C2CCCCC2)n(-c2nc3c(c(=O)[nH]2)CCC3)n1`, the IC50 is > 100 µM (inactive).

Consider `O=C(NC(CO)c1ccc(F)cc1)c1ccc(-c2c[nH]c3ncccc23)s1` (configuration not stated), for which the IC50 was 1.3 µM.

As to `CN1CCCN(C(=O)c2ccc(N3CCCC3)cc2Cl)CC1`, the IC50 was > 100 µM (inactive).

For orientation: IC50 means the point on the concentration scale where inhibition reaches its midpoint.
